According to the NIST ThermoML archive (doi:10.1021/je300280s):
Several values for one entry are separate records, joined by “and”; a condition that tells them apart may be missing. Equal values may be shown once. ± gives the expanded uncertainty stated by the source.

Experiments:
[1] = excess molar enthalpy (molar enthalpy of mixing); xn = mol fraction of the nth substance listed; details: 101.3 kPa, Liquid, Flow calorimetry
[2] = xn = mol fraction of the nth substance listed; details: 101.3 kPa, Liquid, Vibrating tube method

CCCC(=O)OC [methyl butanoate] + O
Details | excess molar enthalpy, [1] | mass density, [2]
288.15 K, x1 = 0.000628 | -0.00163 kcal/mol and -0.00164 kcal/mol | 999.058 ± 0.033 kg/m3
288.15 K, x1 = 0.000941 | -0.00247 ± 0.000203 kcal/mol | 999.037 ± 0.033 kg/m3
288.15 K, x1 = 0.000943 | -0.00244 ± 0.000203 kcal/mol | 999.038 ± 0.033 kg/m3
288.15 K, x1 = 0.001255 | -0.00319 ± 0.00021 kcal/mol | 999.019 ± 0.033 kg/m3
288.15 K, x1 = 0.001257 | -0.00321 ± 0.00021 kcal/mol | 999.019 ± 0.033 kg/m3
288.15 K, x1 = 0.001569 | -0.00403 ± 0.000217 kcal/mol | 998.999 ± 0.033 kg/m3
288.15 K, x1 = 0.00157 | -0.00397 ± 0.000215 kcal/mol | 999.001 ± 0.033 kg/m3
288.15 K, x1 = 0.001882 | -0.00473 ± 0.000225 kcal/mol | 998.985 ± 0.033 kg/m3
288.15 K, x1 = 0.001884 | -0.00482 ± 0.000225 kcal/mol | 998.981 ± 0.033 kg/m3
298.15 K, x1 = 0.000628 | -0.00122 kcal/mol and -0.00123 kcal/mol | 996.968 ± 0.034 kg/m3 and 996.965 ± 0.034 kg/m3
298.15 K, x1 = 0.000942 | -0.00184 kcal/mol and -0.00183 kcal/mol | 996.917 ± 0.034 kg/m3 and 996.921 ± 0.034 kg/m3
298.15 K, x1 = 0.001256 | -0.0024 kcal/mol and -0.00241 kcal/mol | 996.885 ± 0.034 kg/m3 and 996.884 ± 0.034 kg/m3
298.15 K, x1 = 0.001569 | -0.00296 ± 0.000208 kcal/mol | 996.85 ± 0.034 kg/m3
298.15 K, x1 = 0.00157 | -0.003 ± 0.000208 kcal/mol | 996.838 ± 0.034 kg/m3
298.15 K, x1 = 0.001882 | -0.0036 ± 0.000213 kcal/mol | 996.8 ± 0.034 kg/m3
298.15 K, x1 = 0.001883 | -0.00351 ± 0.000213 kcal/mol | 996.81 ± 0.034 kg/m3
298.15 K, x1 = 0.002195 | -0.00402 ± 0.000215 kcal/mol | 996.774 ± 0.035 kg/m3
298.15 K, x1 = 0.002197 | -0.00404 ± 0.000217 kcal/mol | 996.773 ± 0.035 kg/m3
308.15 K, x1 = 0.000626 | -0.000837 ± 0.000191 kcal/mol | 993.913 ± 0.036 kg/m3
308.15 K, x1 = 0.000627 | -0.000839 ± 0.000191 kcal/mol | 993.914 ± 0.036 kg/m3
308.15 K, x1 = 0.000939 | -0.00124 ± 0.000194 kcal/mol | 993.855 ± 0.14 kg/m3
308.15 K, x1 = 0.000941 | -0.00124 ± 0.000194 kcal/mol | 993.855 ± 0.14 kg/m3
308.15 K, x1 = 0.001253 | -0.00165 ± 0.000198 kcal/mol | 993.793 ± 0.037 kg/m3
308.15 K, x1 = 0.001254 | -0.00161 ± 0.000198 kcal/mol | 993.798 ± 0.037 kg/m3
308.15 K, x1 = 0.001565 | -0.00199 ± 0.000201 kcal/mol | 993.741 ± 0.21 kg/m3
308.15 K, x1 = 0.001567 | -0.00199 ± 0.000201 kcal/mol | 993.742 ± 0.21 kg/m3
308.15 K, x1 = 0.001878 | -0.00241 ± 0.000203 kcal/mol | 993.673 ± 0.26 kg/m3
308.15 K, x1 = 0.00188 | -0.00237 ± 0.000203 kcal/mol | 993.682 ± 0.26 kg/m3
308.15 K, x1 = 0.002191 | -0.00271 ± 0.000206 kcal/mol | 993.626 ± 0.16 kg/m3
308.15 K, x1 = 0.002194 | -0.00272 ± 0.000206 kcal/mol | 993.63 ± 0.21 kg/m3
318.15 K, x1 = 0.000941 | -0.00066 ± 0.000191 kcal/mol | 989.988 ± 0.039 kg/m3
318.15 K, x1 = 0.000942 | -0.000669 ± 0.000191 kcal/mol | 989.983 ± 0.039 kg/m3
318.15 K, x1 = 0.001254 | -0.000865 ± 0.000191 kcal/mol | 989.911 ± 0.039 kg/m3
318.15 K, x1 = 0.001255 | -0.000872 ± 0.000191 kcal/mol | 989.908 ± 0.039 kg/m3
318.15 K, x1 = 0.001567 | -0.00106 ± 0.000194 kcal/mol | 989.837 ± 0.04 kg/m3
318.15 K, x1 = 0.001569 | -0.00106 ± 0.000194 kcal/mol | 989.832 ± 0.04 kg/m3
318.15 K, x1 = 0.001879 | -0.00126 ± 0.000196 kcal/mol | 989.762 ± 0.04 kg/m3
318.15 K, x1 = 0.001882 | -0.00124 ± 0.000194 kcal/mol | 989.758 ± 0.04 kg/m3
318.15 K, x1 = 0.002192 | -0.00141 ± 0.000196 kcal/mol | 989.694 ± 0.041 kg/m3
318.15 K, x1 = 0.002195 | -0.00143 ± 0.000196 kcal/mol | 989.679 ± 0.041 kg/m3

CCCOC(C)=O [propyl ethanoate] + O
Details | excess molar enthalpy, [1] | mass density, [2]
288.15 K, x1 = 0.000935 | -0.00273 ± 0.000206 kcal/mol | 999.019 ± 0.033 kg/m3
288.15 K, x1 = 0.001246 | -0.00364 ± 0.000213 kcal/mol | 998.986 ± 0.033 kg/m3
288.15 K, x1 = 0.001248 | -0.00363 ± 0.000213 kcal/mol | 998.988 ± 0.033 kg/m3
288.15 K, x1 = 0.001558 | -0.00452 ± 0.00022 kcal/mol | 998.959 ± 0.033 kg/m3
288.15 K, x1 = 0.00156 | -0.00446 ± 0.00022 kcal/mol | 998.962 ± 0.033 kg/m3
288.15 K, x1 = 0.001869 | -0.00535 ± 0.000227 kcal/mol | 998.934 ± 0.033 kg/m3
288.15 K, x1 = 0.001871 | -0.00534 ± 0.000227 kcal/mol | 998.936 ± 0.033 kg/m3
288.15 K, x1 = 0.00218 | -0.0062 ± 0.000234 kcal/mol | 998.909 ± 0.033 kg/m3
288.15 K, x1 = 0.002182 | -0.00616 ± 0.000232 kcal/mol | 998.906 ± 0.033 kg/m3
288.15 K, x1 = 0.002491 | -0.00703 ± 0.000239 kcal/mol | 998.876 ± 0.033 kg/m3
288.15 K, x1 = 0.002494 | -0.00708 ± 0.000239 kcal/mol | 998.882 ± 0.033 kg/m3
298.15 K, x1 = 0.000935 | -0.00206 ± 0.000201 kcal/mol | 996.903 ± 0.1 kg/m3
298.15 K, x1 = 0.000936 | -0.0021 ± 0.000201 kcal/mol | 996.9 ± 0.034 kg/m3
298.15 K, x1 = 0.000937 | -0.00212 ± 0.000201 kcal/mol | 996.898 ± 0.1 kg/m3
298.15 K, x1 = 0.001247 | -0.00274 ± 0.000206 kcal/mol | 996.856 ± 0.13 kg/m3
298.15 K, x1 = 0.001248 | -0.00277 ± 0.000206 kcal/mol | 996.852 ± 0.034 kg/m3
298.15 K, x1 = 0.001249 | -0.00278 ± 0.000206 kcal/mol | 996.848 ± 0.13 kg/m3
298.15 K, x1 = 0.001558 | -0.00347 ± 0.000213 kcal/mol | 996.807 ± 0.17 kg/m3
298.15 K, x1 = 0.00156 | -0.00342 kcal/mol and -0.00343 kcal/mol | 996.803 ± 0.17 kg/m3 and 996.805 ± 0.17 kg/m3
298.15 K, x1 = 0.001869 | -0.00404 ± 0.000217 kcal/mol | 996.762 ± 0.16 kg/m3
298.15 K, x1 = 0.001871 | -0.00407 ± 0.000217 kcal/mol | 996.758 ± 0.2 kg/m3
298.15 K, x1 = 0.001872 | -0.00405 ± 0.000217 kcal/mol | 996.748 ± 0.035 kg/m3
298.15 K, x1 = 0.002181 | -0.00472 ± 0.000222 kcal/mol | 996.714 ± 0.22 kg/m3
298.15 K, x1 = 0.002183 | -0.00466 kcal/mol and -0.00472 kcal/mol | 996.703 ± 0.22 kg/m3 and 996.709 ± 0.23 kg/m3
298.15 K, x1 = 0.002492 | -0.00539 ± 0.000227 kcal/mol | 996.669 ± 0.27 kg/m3
298.15 K, x1 = 0.002494 | – | 996.669 ± 0.034 kg/m3
298.15 K, x1 = 0.002495 | – | 996.655 ± 0.12 kg/m3
308.15 K, x1 = 0.000936 | -0.00148 kcal/mol and -0.00147 kcal/mol | 993.831 ± 0.037 kg/m3 and 993.832 ± 0.037 kg/m3
308.15 K, x1 = 0.001247 | -0.00196 kcal/mol and -0.00197 kcal/mol | 993.761 ± 0.037 kg/m3
308.15 K, x1 = 0.001559 | -0.00245 kcal/mol and -0.00244 kcal/mol | 993.691 ± 0.037 kg/m3 and 993.692 ± 0.037 kg/m3
308.15 K, x1 = 0.00187 | -0.00286 kcal/mol and -0.00292 kcal/mol | 993.628 ± 0.037 kg/m3 and 993.621 ± 0.037 kg/m3
308.15 K, x1 = 0.002181 | -0.00332 kcal/mol and -0.00334 kcal/mol | 993.559 ± 0.037 kg/m3 and 993.557 ± 0.037 kg/m3
308.15 K, x1 = 0.002492 | -0.0037 kcal/mol and -0.00371 kcal/mol | 993.5 ± 0.037 kg/m3 and 993.503 ± 0.037 kg/m3
318.15 K, x1 = 0.000936 | -0.000911 ± 0.000191 kcal/mol | 989.957 ± 0.039 kg/m3
318.15 K, x1 = 0.000937 | -0.000932 ± 0.000191 kcal/mol | 989.951 ± 0.039 kg/m3
318.15 K, x1 = 0.001247 | -0.00119 ± 0.000194 kcal/mol | 989.872 ± 0.039 kg/m3
318.15 K, x1 = 0.001248 | -0.00122 ± 0.000194 kcal/mol | 989.86 ± 0.039 kg/m3
318.15 K, x1 = 0.001559 | -0.00148 ± 0.000196 kcal/mol | 989.782 ± 0.04 kg/m3
318.15 K, x1 = 0.001561 | -0.00148 ± 0.000196 kcal/mol | 989.779 ± 0.04 kg/m3
318.15 K, x1 = 0.00187 | -0.00175 ± 0.000198 kcal/mol | 989.693 ± 0.04 kg/m3
318.15 K, x1 = 0.001873 | -0.00172 ± 0.000198 kcal/mol | 989.698 ± 0.04 kg/m3
318.15 K, x1 = 0.002182 | -0.00201 ± 0.000201 kcal/mol | 989.605 ± 0.04 kg/m3
318.15 K, x1 = 0.002184 | -0.00198 ± 0.000201 kcal/mol | 989.612 ± 0.04 kg/m3
318.15 K, x1 = 0.002493 | -0.00221 ± 0.000203 kcal/mol | 989.536 ± 0.04 kg/m3
318.15 K, x1 = 0.002496 | -0.00221 ± 0.000203 kcal/mol | 989.532 ± 0.04 kg/m3
